# Patent US20260060972A1, “Quantitative Method of Determining a Mental Status Based on DRD1 and/or DRD5, and its Application Thereof” (priority 2022, published 2026)
# “Also recorded” adds a separate entry of the source.
# Key:
# [1] = tested on: 2.8-kb human DRD1 gene promoter; assay: Dual-luciferase reporter assay of human DRD1 gene promoter in SH-SY5Y cells; conditions: for effect on SCH23390/SKF81297-altered DRD1 promoter activity: co-treatment with SCH23390 or SKF81297
# human DRD1 gene = assay: DRD1 mRNA expression by quantitative real time-PCR in SH-SY5Y cells; conditions: for DRD1 mRNA expression, time response: 10 μM, 12, 18, 24, 30 or 32 hrs; for effect of Haloperidol co-treatment on SCH23390-decreased DRD1 mRNA expression: Haloperidol 10 μM co-treatment 12 hrs
# Protocol: Time-response study. […] The controls received DMSO only. After each time period, the cells were harvested and processed for mRNA analysis of human DRD1 gene.
# After treatment, the cells were harvested and processed for mRNA and protein analysis of human DRD1 gene.
# After treatment, the cells were harvested and processed for mRNA and protein analysis of human DRD1 gene
# The concentration and purity of total RNAs was determined by Biospectrometer (Eppendorf, Hauppauge, NY) at 260 nm. Only RNA samples with an A260/A280 ratio between 1.8-2.0 were used for cDNA synthesis. Briefly, 3 μg total RNAs were reversely transcribed into cDNA using Random and Oligo 9dT) Primers (cat #PR-C1181, Fisher Scientific, Hanover Park, IL), Oilgo dT (cat #FERSO131, Fisher Scientific, Hanover Park, IL), and SuperScript II reverse transcriptase (Life Technologies, Carlsbad, CA) following the manufacturer's instructions. The synthesized cDNA samples were stored at −20° C.
# Each cDNA sample, in duplicate, was placed into 96-well plates and mixed with SYBR Select Master Mix (Life Technologies, Carlsbad, CA) and gene-specific primer set. In general, each SYBR reactions in each well contains 5 ml SYBR Select Master Mix, 0.2 μl 10 μM gene-specific primer set, 1.8 μl deionized distilled water, and 3 μl cDNA samples. The qRT-PCR assay was performed in an AriaMx qRT-PCR system (Agilent Technologies; Santa Clara, CA). The relative mRNA expression of each individual gene was calculated according to the comparative delta-delta CT method. The results were expressed as a relative fold, normalized to the expression of 18s rDNA. All quantitative RT-PCR primers were designed using PubMed Primer-BLAST or Primer3 software (NIH) and synthesized by Eurofins (Eurofins MWG Operon USA, Louisville, KY).
# The sequences of RT-PCR primers of human DRD1 are as follows: • Gene human DRD1, forward primer: [Sequence ID: 1] 5′-[sequence]-3′, reverse primer: [Sequence ID: 2] 5′-[sequence]-3′ • Gene 18s rDNA, NM number NR_003278.3, forward primer [Sequence ID: 3] 5′-[sequence]-3′; reverse primer [Sequence ID: 4] 5′-[sequence]-3′
# DRD1 membrane protein = conditions: treatment for 36 hrs
# Protocol: The cultured SH-SY5Y cells were pretreated with complete EMEM medium containing 10 μM SCH23390 for 6 hrs or 12 hrs. […] After treatment, the cells were harvested and processed for mRNA and protein analysis of human DRD1 gene.
# The cultured SH-SY5Y cells were pretreated with complete EMEM medium containing 10 μM SKF81297 for 6 hrs or 12 hrs. […] After treatment, the cells were harvested and processed for mRNA and protein analysis of human DRD1 gene
# The membrane proteins were extracted using the mem-PER Plus membrane protein extraction kit (ThermoFisher Scinetific, Waltham, MA). The protein concentrations were semi-quantified spectrophotometrically at 280 nm. […] Then, proteins were electro-transferred to a polyvinyl difluoride (PVDF) membrane. […] After the block, the membrane was incubated with primary antibody (human DRD1 antibody, 1:1000) overnight at 4° C. […] The membrane was briefly washed 3 times using fresh TBS, then incubated with Pierce High Sensitivity Streptavidin HRP-linked secondary antibody (1:5000) in TBS supplemented with 0.5% BSA for 30 minutes at room temperature. The membrane was rinsed 3 times using fresh TBS. The immunoreactive protein bands in the membrane were visualized via UVP Biospectrum Imaging system (Upland, CA) using with Immobilon Chemiluminescence reagents (Millipore, Billerica, MA). Protein bands analysis was performed using the ImageJ (NIH, Bethesda, MD).
# [2] = 10 μM, treatment for 18 hrs (FIG. 2A, 3A)
# [3] = 10 μM, treatment for 24 hrs (FIG. 2A, 3A)
smiles,measurement,setting,value
CN(C)C(=O)N[C@H]1CC[C@H](CCN2CCN(c3cccc(Cl)c3Cl)CC2)CC1 [Cariprazine],effect on SCH23390/SKF81297-altered DRD1 promoter activity,[1],trans-stabilize SCH23390/SKF81297-altered DRD1 promoter activity
O=C(CCCN1CCC(O)(c2ccc(Cl)cc2)CC1)c1ccc(F)cc1 [Haloperidol],"DRD1 mRNA expression, time response",human DRD1 gene; SH-SY5Y cells (FIG. 1A),did not alter DRD1 mRNA expression at any time points
same,"DRD1 mRNA and protein expression, treatment alone (summary)","human DRD1 gene; 10 μM, SH-SY5Y cells",does not alter DRD1 expression
same,"DRD1 mRNA expression, treatment alone",human DRD1 gene; [2],did not alter DRD1 mRNA expression
same,"DRD1 mRNA expression, treatment alone",human DRD1 gene; [3],did not alter DRD1 mRNA expression
same,effect of Haloperidol co-treatment on SKF81297-increased DRD1 mRNA expression,human DRD1 gene; Haloperidol co-treatment for 12 hrs (FIG. 3A),completely diminished SKF81297-increased DRD1 mRNA expression
same,effect of Haloperidol co-treatment on SCH23390-decreased DRD1 mRNA expression,human DRD1 gene; SCH23390 10 μM for 18 hrs,completely reversed
same,effect of Haloperidol co-treatment on SCH23390-decreased DRD1 mRNA expression,human DRD1 gene; SCH23390 10 μM for 24 hrs,not reversed
same,effect of Haloperidol co-treatment on SCH23390-decreased DRD1 mRNA and protein expression (summary),human DRD1 gene; SH-SY5Y cells (FIGS. 2A-2E),reverses SCH23390-decreased DRD1 mRNA and protein expression; also recorded: reversed
same,effect of Haloperidol co-treatment on SKF81297-increased DRD1 mRNA and protein expression (summary),human DRD1 gene; SH-SY5Y cells (FIGS. 3A-3E),attenuated SKF81297-increased DRD1 mRNA and protein expression
same,"human DRD1 gene promoter activity, treatment alone","[1]; 2.8-kb promoter luciferase reporter, SCH23390 and SKF81297 for 36 hrs (FIG. 4A, 4B)",did not change human DRD1 gene promoter activity
same,effect of haloperidol cotreatment on SCH23390-repressed DRD1 promoter activity,"[1]; SCH23390 36 hrs, haloperidol cotreatment 24 or 36 hrs (FIG. 4A)",reversed
same,effect of haloperidol co-treatment on SKF81297-activated DRD1 promoter activity,"[1]; SKF81297 36 hrs, haloperidol co-treatment 24 and 36 hrs (FIG. 4B)",markedly attenuated
same,effect on SCH23390/SKF81297-altered DRD1 promoter activity,[1],reversed SCH23390/SKF21897-altered DRD1 promoter activity; also recorded: reversed either SCH23390 or SKF81297-altered human DRD1 promoter activity
Cc1nc2n(c(=O)c1CCN1CCC(c3noc4cc(F)ccc34)CC1)CCCC2 [Risperidone],relative Luciferase activity of DRD1 under treatment of SCH and antipsychotic,"[1]; co-treatment of SCH (FIG. 5A, 6A)",partial DRD1 antagonist effect
same,relative Luciferase activity of DRD1 under treatment of SKF and antipsychotic,"[1]; co-treatment of SKF (FIG. 5B, 6B)",partial DRD1 antagonist effect
same,effect on SCH23390/SKF81297-altered DRD1 promoter activity,[1],trans-stabilize SCH23390/SKF81297-altered DRD1 promoter activity; also recorded: reverse and normalize either SCH23390 or SKF81297-altered human DRD1 promoter activity
"CN1CCc2cc(Cl)c(O)cc2[C@@H](c2ccccc2)C1 [SCH23390, SCH-23390]",decrease of DRD1 membrane protein,DRD1 membrane protein,more than 70%
"Oc1cc2c(c(Cl)c1O)CCNCC2c1ccccc1 (stereo not drawn) [SKF81297, SKF-81297]","DRD1 mRNA expression, time response",human DRD1 gene; SH-SY5Y cells (FIG. 1A),time-dependently increased DRD1 mRNA expression
same,increase of DRD1 mRNA expression,"human DRD1 gene; 10 μM, 24 hrs later, SH-SY5Y cells (FIG. 1A)",6 fold
same,DRD1 mRNA expression 30 hrs later and thereafter,"human DRD1 gene; 10 μM, 30 hrs later and thereafter, SH-SY5Y cells",decreased to basal level
same,"DRD1 mRNA and protein expression, treatment alone (summary)","human DRD1 gene; 10 μM, SH-SY5Y cells",increases DRD1 mRNA and protein expression in a time-dependent manner
same,"DRD1 mRNA expression, treatment alone",human DRD1 gene; [2],increased human DRD1 mRNA expression
same,"DRD1 mRNA expression, treatment alone",human DRD1 gene; [3],increased human DRD1 mRNA expression
